# Laboratory results from patent publication US8143212B2 (Vicuron Pharmaceuticals Inc., priority 2002, dated 2012).
# Read-outs that look alike come from different tables or passages of the source.
# Columns and labels:
# S. pneumoniae = assay: MIC by NCCLS microdilution of study organisms (Table 29); format: cell-based; settings: Streptococcus pneumoniae
# Protocol: (§1) MICs were determined in MHB by standard NCCLS microdilution techniques. […] All MICs were performed at least in duplicate.
# S. aureus [1] = assay: as above; format: cell-based
# Protocol: as §1
# [2] = human, in vivo
# Excerpt: The study enrolled otherwise healthy subjects with mild, moderate, or severe hepatic impairment (Child-Pugh scores 5 to 6, 7 to 9, and 10 to 15, respectively) and matched control subjects with normal hepatic function.
# C albicans = assay: MIC, microbiological activity (Table 3); format: cell-based; settings: L 145 C albicans SKF2270; read-out: MIC
# S. aureus [3] = assay: Murine thigh-infection model (time kill, dosing regimen, PK/PD; Tables 31, 32);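 note: mouse thigh infection, bacterial counts per thigh after therapy, dose-response curves fitted with a maximum effect model to give static and 1 or 2 log kill exposures, mean of 4 thighs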
# Protocol: The murine thigh-infection model was used for all organisms throughout the various studies. In this well-established model, approximately 10^6 Cfu of the study organisms are injected into one or both thighs (in 0.1 ml) two hours before starting therapy. The number of organisms in the thigh at the start of therapy in the following studies varied from 10^7.15-7.59 cfu/thigh.
# Each point represents the mean of 4 thighs. Five dose levels, ranging 16-fold were used. The dose levels used in the study against S. aureus ranged from 5 to 80 mg/kg.
# In these studies, multiple dosing regimens varying the dose and dosage interval were administered intraperitoneally in 0.2 ml volumes to groups of mice for 144 h (6 days). The dosing intervals chosen were 12, 24, 36, and 72 hours. Five different doses (two-fold increases) were used. Study against S. aureus utilized total dose (mg/kg/6d) levels ranging from 30 to 480 mg/kg/6d. […] Each point represents the mean of 4 thighs.
# Each of the dose-response curves was also mathematically characterized using a maximum effect model. […] From these parameters we could then calculate the dose required to produce a net bacteriostatic effect over the 144 hour treatment period as well as the doses necessary to produce a 1 and 2 log-reduction in organism burden.
# We determined which PK/PD parameter correlated best with efficacy by relating the number of bacteria in thigh at the end of 144 hours of therapy with [1] the peak/MIC ratio, [2] the AUC/MIC ratio, and [3] the percentage of the dosing interval that serum levels exceed the MIC for each of the dosage regimens studied. The PK/PD parameter values for those doses not specifically studied were extrapolated from the values of the nearest studied doses. […] Each point represents the mean of four thighs. […] The data illustrated in these figures were also analyzed by the same maximum dose-response model mentioned above, except that the different PK/PD parameters were used in place of the dose. The R^2 represents the coefficient of determination observed for the relationship between efficacy and each PK/PD parameter.
# [4] = Staphylococcus aureus, MRSA, S. aureus strain MRSA
# [5] = Staphylococcus aureus, S. aureus strain Smith
# [6] = Mean ± SD of S. aureus strains, q 24 h regimen
# [7] = Mean ± SD of S. aureus strains, q 72 h regimen
smiles,measurement,setting,value
CN[C@H]1C(=O)N[C@@H]2Cc3ccc(cc3)Oc3cc4cc(c3O[C@@H]3O[C@H](C(=O)O)[C@@H](O)[C@H](O)[C@H]3NC(=O)CCCCCCCCC(C)C)Oc3ccc(cc3Cl)[C@@H](O)[C@@H]3NC(=O)[C@H](NC(=O)[C@@H]4NC(=O)[C@@H](NC2=O)c2cc(cc(O)c2Cl)Oc2cc1ccc2O)c1ccc(O)c(c1)-c1c(O[C@H]2O[C@H](CO)[C@@H](O)[C@H](O)[C@@H]2O)cc(O)cc1[C@@H](C(=O)NCCCN(C)C)NC3=O [Dalbavancin],MIC,S. pneumoniae; S. pneumoniae SP1396,0.008 µg/mL
same,MIC,"S. pneumoniae; S. pneumoniae strain 1199, read-out: MIC",0.004 µg/mL
same,MIC,"S. pneumoniae; S. pneumoniae strain 1293, read-out: MIC",0.004 µg/mL
same,MIC,"S. pneumoniae; S. pneumoniae strain 1325, read-out: MIC",0.008 µg/mL
same,MIC,"S. pneumoniae; S. pneumoniae strain 1329, read-out: MIC",0.008 µg/mL
same,MIC,"S. pneumoniae; S. pneumoniae strain 10813, read-out: MIC",0.03 µg/mL
same,MIC,"S. pneumoniae; five pneumococcal organisms, read-out: MICs",0.004 to 0.03 µg/mL
same,MBC,S. aureus [1]; S. aureus strain 25923,0.25 µg/mL
same,MIC,S. aureus [1]; S. aureus strain MRSA,0.06 µg/mL
same,MBC,S. aureus [1]; S. aureus strain Smith,0.25 µg/mL
same,MIC,S. aureus [1]; S. aureus strain Smith,0.12 µg/mL
same,MBC,S. aureus [1]; [4],0.25 µg/mL
same,MIC,S. aureus [1]; [4],0.12 µg/mL
same,MBC,"S. aureus [1]; Staphylococcus aureus, S. aureus strain 25923",0.5 µg/mL
same,MIC,"S. aureus [1]; Staphylococcus aureus, S. aureus strain 31005",0.06 µg/mL
same,MBC,"S. aureus [1]; Staphylococcus aureus, S. aureus strain 33591",0.25 µg/mL
same,MIC,"S. aureus [1]; Staphylococcus aureus, S. aureus strain 307109",0.06 µg/mL
same,MBC,S. aureus [1]; [5],0.5 µg/mL
same,MIC,S. aureus [1]; [5],0.06 µg/mL
same,MIC,"S. aureus [1]; Staphylococcus aureus, read-out: MICs, six S. aureus isolates",0.06 to 0.12 µg/mL
same,tolerability,[2],well tolerated
same,MIC,C albicans,> 32 µg/mL
same,1 Log Kill f24AUC/MBC,"S. aureus [3]; MRSA, q 24 h regimen",109
same,1 Log Kill f24AUC/MIC,"S. aureus [3]; MRSA, q 24 h regimen",452
same,1 Log Kill mg/kg/24 h,"S. aureus [3]; MRSA, q 24 h regimen",45.3 mg/kg/24 h
same,2 Log Kill f24AUC/MBC,"S. aureus [3]; MRSA, q 24 h regimen",125
same,2 Log Kill f24AUC/MIC,"S. aureus [3]; MRSA, q 24 h regimen",519
same,2 Log Kill mg/kg/24 h,"S. aureus [3]; MRSA, q 24 h regimen",53.5 mg/kg/24 h
same,Static Effect f24AUC/MBC,"S. aureus [3]; MRSA, q 24 h regimen",90
same,Static Effect f24AUC/MIC,"S. aureus [3]; MRSA, q 24 h regimen",374
same,Static Effect mg/kg/24 h,"S. aureus [3]; MRSA, q 24 h regimen",37.7 mg/kg/24 h
same,1 Log Kill f24AUC/MBC,"S. aureus [3]; MRSA, q 72 h regimen",48.8
same,1 Log Kill f24AUC/MIC,"S. aureus [3]; MRSA, q 72 h regimen",202
same,1 Log Kill mg/kg/24 h,"S. aureus [3]; MRSA, q 72 h regimen",62 mg/kg/24 h
same,2 Log Kill f24AUC/MBC,"S. aureus [3]; MRSA, q 72 h regimen",70
same,2 Log Kill f24AUC/MIC,"S. aureus [3]; MRSA, q 72 h regimen",292
same,2 Log Kill mg/kg/24 h,"S. aureus [3]; MRSA, q 72 h regimen",85 mg/kg/24 h
same,Static Effect f24AUC/MBC,"S. aureus [3]; MRSA, q 72 h regimen",35.3
same,Static Effect f24AUC/MIC,"S. aureus [3]; MRSA, q 72 h regimen",147
same,Static Effect mg/kg/72 h,"S. aureus [3]; MRSA, q 72 h regimen",43 mg/kg/72 h
same,1 Log Kill f24AUC/MBC,S. aureus [3]; [6],86.6 ± 27.6
same,1 Log Kill f24AUC/MIC,S. aureus [3]; [6],268 ± 119
same,1 Log Kill mg/kg/24 h,S. aureus [3]; [6],43.7 ± 9.5 mg/kg/24 h
same,2 Log Kill f24AUC/MBC,S. aureus [3]; [6],110 ± 42
same,2 Log Kill f24AUC/MIC,S. aureus [3]; [6],332 ± 131
same,2 Log Kill mg/kg/24 h,S. aureus [3]; [6],55 ± 14 mg/kg/24 h
same,Static Effect f24AUC/MBC,S. aureus [3]; [6],101 ± 72
same,Static Effect f24AUC/MIC,S. aureus [3]; [6],265 ± 143
same,Static Effect mg/kg/24 h,S. aureus [3]; [6],37.1 ± 9.1 mg/kg/24 h
same,1 Log Kill f24AUC/MBC,S. aureus [3]; [7],75.9 ± 45.2
same,1 Log Kill f24AUC/MIC,S. aureus [3]; [7],213 ± 8.14
same,1 Log Kill mg/kg/24 h,S. aureus [3]; [7],94 ± 46 mg/kg/24 h
same,2 Log Kill f24AUC/MBC,S. aureus [3]; [7],101 ± 61
same,2 Log Kill f24AUC/MIC,S. aureus [3]; [7],266 ± 88
same,2 Log Kill mg/kg/24 h,S. aureus [3]; [7],120 ± 54 mg/kg/24 h
same,Static Effect f24AUC/MBC,S. aureus [3]; [7],55 ± 31
same,Static Effect f24AUC/MIC,S. aureus [3]; [7],160 ± 67
same,Static Effect mg/kg/72 h,S. aureus [3]; [7],72 ± 41 mg/kg/72 h
same,1 Log Kill f24AUC/MBC,"S. aureus [3]; SA25923, q 24 h regimen",60
same,1 Log Kill f24AUC/MIC,"S. aureus [3]; SA25923, q 24 h regimen",250
same,1 Log Kill mg/kg/24 h,"S. aureus [3]; SA25923, q 24 h regimen",51.2 mg/kg/24 h
same,2 Log Kill f24AUC/MBC,"S. aureus [3]; SA25923, q 24 h regimen",69.3
same,2 Log Kill f24AUC/MIC,"S. aureus [3]; SA25923, q 24 h regimen",289
same,2 Log Kill mg/kg/24 h,"S. aureus [3]; SA25923, q 24 h regimen",60 mg/kg/24 h
same,Static Effect f24AUC/MBC,"S. aureus [3]; SA25923, q 24 h regimen",52
same,Static Effect f24AUC/MIC,"S. aureus [3]; SA25923, q 24 h regimen",216
same,Static Effect mg/kg/24 h,"S. aureus [3]; SA25923, q 24 h regimen",42.7 mg/kg/24 h
same,1 Log Kill f24AUC/MBC,"S. aureus [3]; SA25923, q 72 h regimen",76.1
same,1 Log Kill f24AUC/MIC,"S. aureus [3]; SA25923, q 72 h regimen",317
same,1 Log Kill mg/kg/24 h,"S. aureus [3]; SA25923, q 72 h regimen",185 mg/kg/24 h
same,2 Log Kill f24AUC/MBC,"S. aureus [3]; SA25923, q 72 h regimen",88.1
same,2 Log Kill f24AUC/MIC,"S. aureus [3]; SA25923, q 72 h regimen",367
same,2 Log Kill mg/kg/24 h,"S. aureus [3]; SA25923, q 72 h regimen",214 mg/kg/24 h
same,Static Effect f24AUC/MBC,"S. aureus [3]; SA25923, q 72 h regimen",66
same,Static Effect f24AUC/MIC,"S. aureus [3]; SA25923, q 72 h regimen",274
